Results on four compounds are retold here after patent publication US20250002453A1, “PHARMACEUTICALLY ACCEPTABLE SALT OF ELIGLUSTAT AND CRYSTAL FORM THEREOF” (SPEROGENIX (SHANGHAI) MEDTECH CO., LTD., priority 2021, published 2025).

Common to all, as to assay type: physicochemical
A short description of data set [1]: Dynamic solubility test (water, SGF, FaSSIF, FeSSIF; 37° C.; 1, 4 and 24 hours). The following applies: for S: Solubility (free concentration) / pH (of filtrate) / FC: Crystalline form transformation: 37° C.; for FC: Crystalline form transformation: XRPD of residual solid. The procedure:
0.2 g sodium chloride and 0.1 g Triton X-100 are weighted into a 100 mL volumetric flask. Pure water is added for dissolution, stirred until the solid is completely dissolved, about 1.632 mL hydrochloric acid (1M) is added, and the pH is adjusted to 1.8 with 1M hydrochloric acid or 1M sodium hydroxide, and finally it is diluted to volume with pure water.
0.34 g sodium dihydrogen phosphate (NaH2PO4, anhydrous), 0.042 g sodium hydroxide, and 0.62 g sodium chloride are weighted respectively into a 100 mL volumetric flask, about 48 mL pure water is added for dissolution, the pH is adjusted to 6.5 with 1M hydrochloric acid or 1M sodium hydroxide, and finally it is diluted to volume with pure water to obtain a stock solution. A 50-mL volumetric flask is taken. 0.11 g of SIF powder is added, and dissolved with the above stock solution, then diluted to volume. The powder is completely dissolve by ultrasound.
(§1) The purity test, dynamic solubility and stability test in the experiment are completed by Agilent 1260 high performance liquid chromatography. The salt-forming molar ratio test of ions is completed by ion chromatography test.
The dynamic solubility of crystalline form B/crystalline form C of 1,5-naphthalene disulfonate, crystalline form A of oxalate, crystalline form A of tartrate and free crystalline form A in water and three biological solvents were evaluated.
After sampling at each time point, the samples were centrifugally filtered (0.45 μm PTFE filter head), the free salt concentration and pH value in the filtrate were measured, and the solid samples after centrifugation were tested for XRPD.

Data set [2] in a line: Evaluation of hygroscopicity by Dynamic Vapor Sorption (DVS). The following applies: for Hygroscopic weight gain at 25° C./80% RH / hygroscopic weight gain at 25° C./80% RH: DVS; for Transformation of crystalline form: after DVS test. Here is the method: Dynamic Vapor Sorption (DVS) profiles are collected on the DVS Intrinsic of SMS (Surface Measurement Systems). Relative humidity at 25° C. is corrected with the deliquescent points of LiCl, Mg(NO3)2 and KCl.
The hygroscopicity of crystalline form B/crystalline form C of 1,5-naphthalene disulfonate, crystalline form A of oxalate, crystalline form A of tartrate and free crystalline form A were evaluated by DVS.

Data set [3] can be described thus: Solid state stability assessment (XRPD and HPLC after exposure at 25° C./60% RH and 40° C./75% RH). The procedure:
XRPD patterns are collected on an X-ray powder diffraction analyzer produced by PANalytacal, and Table 2 lists the XRPD parameters.
as §1
After leaving the crystalline form C of 1,5-naphthalene disulfonate in the exposure evaporation at 25° C./60% RH and 40° C./75% RH for 1 week, […] and 4 weeks. The physical and chemical stability of the sample was tested by XRPD and HPLC, and the stability data of crystalline form A of tartrate and free crystalline form A at 1 week, 2 weeks and 4 weeks were used as a reference. At the same time, the stability of crystalline form B of 1,5-naphthalene disulfonate and crystalline form A of oxalate was tested under the conditions of 25° C./60% RH and 40° C./75% RH for 1 week.

The mark [4] stands for this setting: 1 week of exposure at 25° C./60% RH and 40° C./75% RH.
The mark [5] stands for this setting: left exposed for 4 weeks at 25° C./60% RH and 40° C./75% RH.

For `CCCCCCCC(=O)N[C@H](CN1CCCC1)[C@H](O)c1ccc2c(c1)OCCO2.CCCCCCCC(=O)N[C@H](CN1CCCC1)[C@H](O)c1ccc2c(c1)OCCO2.O=S(=O)(O)c1cccc2c(S(=O)(=O)O)cccc12`, the “S: Solubility (free concentration)” value in data set [1] (FaSSIF, 1 hr) worked out at 2700 µg/mL; in data set [1] (FaSSIF, 4 hrs), 2700 µg/mL; in data set [1] (FaSSIF, 12 hrs) it was 2600 µg/mL; in data set [1] (H2O, 1 hr), 1900 µg/mL; in data set [1] (H2O, 4 hrs) it was 2000 µg/mL; in data set [1] (H2O, 12 hrs) it was 2000 µg/mL. In addition, the “S: Solubility (free concentration)” value in data set [1] (SGF, 1 hr) came out at 2700 µg/mL; in data set [1] (SGF, 4 hrs), 2500 µg/mL; in data set [1] (SGF, 12 hrs), 2300 µg/mL. Besides, the “pH (of filtrate)” value in data set [1] (FaSSIF, 1 hr) came to 6.52; in data set [1] (FaSSIF, 4 hrs), 6.51; in data set [1] (FaSSIF, 12 hrs), 6.52; in data set [1] (H2O, 1 hr), 7.67; in data set [1] (H2O, 4 hrs) it was 7.67; in data set [1] (H2O, 12 hrs) it was 7.75. Further, the “pH (of filtrate)” value is 1.84 in data set [1] (SGF, 1 hr); 1.75 in data set [1] (SGF, 4 hrs); 1.77 in data set [1] (SGF, 12 hrs). Moreover, the “FC: Crystalline form transformation” value in data set [1] (FaSSIF, 1 hr) is reported as “Yes”; in data set [1] (FaSSIF, 4 hrs), “Yes”; in data set [1] (FaSSIF, 12 hrs) it was “Yes”; in data set [1] (H2O, 1 hr), “Yes”; in data set [1] (H2O, 4 hrs) it was “Yes”; in data set [1] (H2O, 12 hrs), “Yes”. Also, the “FC: Crystalline form transformation” value in data set [1] (SGF, 1 hr) is “Yes”; in data set [1] (SGF, 4 hrs), “Yes”; in data set [1] (SGF, 12 hrs), “Yes”. For the same compound, the “Hygroscopic weight gain at 25° C./80% RH” value in data set [2] worked out at 0.59%. The “Transformation of crystalline form” value is listed as “Change to crystalline” in data set [2] and “changed to crystalline form C” in data set [2] (listed as crystalline form B of 1,5-naphthalene disulfonate). In addition, the “hygroscopic weight gain (in words)” value in data set [2] (humidity higher than 80% RH at 25° C.) is on record as “significant hygroscopic weight gain”. Further, in data set [3] (setting [4]), the “decrease in HPLC purity” value was “no decrease in HPLC purity was observed”. The “change in crystalline form (XRPD)” value in data set [3] (left exposed for a week at 40° C./75% RH) is listed as “partially transformed into the crystalline form C”.

As to `CCCCCCCC(=O)N[C@H](CN1CCCC1)[C@H](O)c1ccc2c(c1)OCCO2.CCCCCCCC(=O)N[C@H](CN1CCCC1)[C@H](O)c1ccc2c(c1)OCCO2.O.O.O=S(=O)(O)c1cccc2c(S(=O)(=O)O)cccc12`, the “S: Solubility (free concentration)” value is 2900 µg/mL in data set [1] (FaSSIF, 1 hr); 2800 µg/mL in data set [1] (FaSSIF, 4 hrs); 3000 µg/mL in data set [1] (FaSSIF, 12 hrs); 2000 µg/mL in data set [1] (H2O, 1 hr); 1900 µg/mL in data set [1] (H2O, 4 hrs); 2000 µg/mL in data set [1] (H2O, 12 hrs). The “S: Solubility (free concentration)” value in data set [1] (SGF, 1 hr) was 2600 µg/mL; in data set [1] (SGF, 4 hrs), 2400 µg/mL; in data set [1] (SGF, 12 hrs), 2600 µg/mL. The “pH (of filtrate)” value in data set [1] (FaSSIF, 1 hr) was 6.48; in data set [1] (FaSSIF, 4 hrs), 6.48; in data set [1] (FaSSIF, 12 hrs), 6.49; in data set [1] (H2O, 1 hr), 7.39; in data set [1] (H2O, 4 hrs) it was 7.33; in data set [1] (H2O, 12 hrs), 7.45. The “pH (of filtrate)” value stood at 1.80 in data set [1] (SGF, 1 hr); 1.88 in data set [1] (SGF, 4 hrs); 1.89 in data set [1] (SGF, 12 hrs). The “FC: Crystalline form transformation” value is given as “No” in data set [1] (FaSSIF, 1 hr); “No” in data set [1] (FaSSIF, 4 hrs); “No” in data set [1] (FaSSIF, 12 hrs); “No” in data set [1] (H2O, 1 hr); “No” in data set [1] (H2O, 4 hrs); “No” in data set [1] (H2O, 12 hrs). Moreover, the “FC: Crystalline form transformation” value in data set [1] (SGF, 1 hr) is “No”; in data set [1] (SGF, 4 hrs) it was “No”; in data set [1] (SGF, 12 hrs), “No”. In data set [2], the “Hygroscopic weight gain at 25° C./80% RH” value worked out at 0.33%. In data set [2], the “hygroscopic weight gain at 25° C./80% RH” value is on record as 0.33 wt %. In addition, the “Transformation of crystalline form” value in data set [2] is reported as “No change”; in data set [2] (listed as crystalline form C of 1,5-naphthalene disulfonate), “no change in crystalline form”. Also, in data set [3] (setting [5]), the “change in crystalline form (XRPD)” value is on record as “no change in crystalline form”. The “decrease in HPLC purity” value in data set [3] (setting [5]) is listed as “no change in crystalline form or decrease in HPLC purity was observed”.

Turning to `CCCCCCCC(=O)N[C@H](CN1CCCC1)[C@H](O)c1ccc2c(c1)OCCO2.CCCCCCCC(=O)N[C@H](CN1CCCC1)[C@H](O)c1ccc2c(c1)OCCO2.O=C(O)C(=O)O` [Crystalline form A of oxalate], the “S: Solubility (free concentration)” value was not below 8100 µg/mL in data set [1] (FaSSIF, 1 hr); not below 8200 µg/mL in data set [1] (FaSSIF, 4 hrs); not below 8100 µg/mL in data set [1] (FaSSIF, 12 hrs); 6800 µg/mL in data set [1] (H2O, 1 hr); 7800 µg/mL in data set [1] (H2O, 4 hrs); 8000 µg/mL in data set [1] (H2O, 12 hrs). For the same compound, the “S: Solubility (free concentration)” value was not below 8400 µg/mL in data set [1] (SGF, 1 hr); not below 8500 µg/mL in data set [1] (SGF, 4 hrs); not below 8200 µg/mL in data set [1] (SGF, 12 hrs). The “pH (of filtrate)” value is 6.52 in data set [1] (FaSSIF, 1 hr); 6.48 in data set [1] (FaSSIF, 4 hrs); 6.47 in data set [1] (FaSSIF, 12 hrs); 7.07 in data set [1] (H2O, 1 hr); 7.51 in data set [1] (H2O, 4 hrs); 7.30 in data set [1] (H2O, 12 hrs). Further, the “pH (of filtrate)” value in data set [1] (SGF, 1 hr) came to 2.19; in data set [1] (SGF, 4 hrs), 2.17; in data set [1] (SGF, 12 hrs), 2.05. The “FC: Crystalline form transformation” value in data set [1] (H2O, 1 hr) is recorded as “No”; in data set [1] (H2O, 4 hrs), “No”; in data set [1] (H2O, 12 hrs) it was “No”. For the same compound, the “Hygroscopic weight gain at 25° C./80% RH” value in data set [2] is given as 7.64%. Besides, in data set [2], the “hygroscopic weight gain at 25° C./80% RH” value came to 7.64 wt %. The entries for the “Transformation of crystalline form” value in data set [2] and in data set [2] (listed as crystalline form A of oxalate) were “No change” and “no change in crystalline form”, respectively. In addition, the “weight loss (in words)” value in data set [2] (humidity lower than 10% RH) is reported as “Significant weight loss”. The “decrease in HPLC purity” value in data set [3] (setting [4]) was “no decrease in HPLC purity was observed”.

As to `CCCCCCCC(=O)N[C@H](CN1CCCC1)[C@H](O)c1ccc2c(c1)OCCO2.O=S(=O)(O)c1cccc2c(S(=O)(=O)O)cccc12` [Eliglustat 1,5-naphthalene disulfonate], the “solubility difference in water and simulated gastric fluid” value in data set [1] (water versus SGF, in words) is listed as “small”. The “hygroscopicity compared with eliglustat hemitartrate crystalline form A” value in data set [2] (comparison in words) is recorded as “lower hygroscopicity over eliglustat hemitartrate crystalline form A”.
